Earlier results, collected in patent publication US20260174720A1, “NERVONIC ACID COMPOSITION FOR IMPROVING MEMORY-BASED LEARNING FUNCTION AND A PREPARATION METHOD THEREOF” (Guangzhou Decade Nutrition Technology Co., Ltd., priority 2024, published 2026).

solubility in alcohols such as methanol, ethanol: soluble in alcohols
solubility in water (room temperature): insoluble in water
Structure (SMILES): CCCCCCCC/C=C\CCCCCCCCCCCCCC(=O)O [Nervonic acid, cis-15-Tetracosenic Acid]
